We go through two molecules from ChEMBL document CHEMBL5550147, “Supramolecular prodrug of SN38 based on endogenous albumin and SN38 prodrug modified with semaglutide side chain to improve the tumor distribution” (Bioorg Med Chem, 2024).

A short description of data set [1]: Drug distribution in lung of nude mouse xenografted with human HT-29 cells at 15 mg/kg, iv measured for 1 to 48 hrs by HPLC analysis. The class given is ADME, organism-based. The conditions noted are these: in vivo, time 1-48 hrs. A general note: Xenograft models place foreign cells or tissue in a host animal.
In data set [2] the test system is HT-29. In words: Anti-tumor activity against human HT-29 cells xenografted in nude mouse at 15 mg/kg, iv measured for 35 days relative to control. The class given is functional. The conditions noted are these: HT-29, 840 h, time 35 day, read-out: TGI.
Data set [3] is described as follows: Half life in BALB/c mouse at 28 mg/kg, iv measured for 1 to 72 hrs by HPLC analysis. It is filed as ADME, organism-based. The conditions noted are these: in vivo, time 1-72 hrs.
A short description of data set [4]: Volume of distribution in BALB/c mouse at 28 mg/kg, iv measured for 1 to 72 hrs by HPLC analysis. The class given is ADME, organism-based. The settings on record: in vivo, time 1-72 hrs.
Data set [5] is described as follows: Clearance in BALB/c mouse at 28 mg/kg, iv measured for 1 to 72 hrs by HPLC analysis. The settings on record: in vivo, time 1-72 hrs. It is filed as ADME, organism-based.
Another data set concerns MIA PaCa-2. Nature of the data set: Cytotoxicity against human MIA PaCa-2 cells incubated for 48 hrs by MTT assay. It is filed as functional, cell-based. For orientation: Formazan colour is commonly taken as a measure of viable cells.
The nature of data set [6]: Drug accumulation in human HT-29 cells xenografted in nude mouse assessed as fold increase at 28 mg/kg, iv measured for 48 hrs by HPLC analysis relative to Irinotecan. The conditions noted are these: in vivo. The class given is ADME, organism-based.
Another data set relates to A549. In words: Cytotoxicity against human A549 cells incubated for 48 hrs by MTT assay. The class given is functional, cell-based.
Data set [7] in a line: Stability of compound in PBS at pH 7.4 at 50 uM by HPLC analysis. It is filed as physicochemical. The settings on record: buffer, pH 7.4, 50 µM.
Data set [8] deals with HT-29. In words: Anti-tumor activity against human HT-29 cells xenografted in nude mouse at 28 mg/kg, iv measured for 35 days relative to control. It is filed as functional. The conditions noted are these: HT-29, 840 h, time 35 day, read-out: TGI.
Data set [9] relates to HT-29. In words: Cytotoxicity against human HT-29 cells incubated for 48 hrs by MTT assay. The class given is functional, cell-based.
Data set [10] can be described thus: AUC (0 to infinity) in BALB/c mouse at 28 mg/kg, iv measured for 1 to 72 hrs by HPLC analysis. The settings on record: in vivo, time 1-72 hrs. The class given is ADME, organism-based.
The nature of data set [11]: Drug accumulation in human HT-29 cells xenografted in nude mouse assessed as fold increase at 28 mg/kg, iv measured for 24 hrs by HPLC analysis relative to Irinotecan. The class given is ADME, organism-based. The conditions noted are these: in vivo.
Data set [12] in a line: Cmax in BALB/c mouse at 28 mg/kg, iv measured for 1 to 72 hrs by HPLC analysis. It is filed as ADME, organism-based. The settings on record: in vivo, time 1-72 hrs.
The next data set concerns MG-63. Nature of the data set: Cytotoxicity against human MG-63 cells incubated for 48 hrs by MTT assay. It is filed as functional, cell-based.
A short description of data set [13]: Drug accumulation in human HT-29 cells xenografted in nude mouse assessed as fold increase at 28 mg/kg, iv measured for 6 hrs by HPLC analysis relative to Irinotecan. The class given is ADME, organism-based. The settings on record: in vivo.
The nature of data set [14]: Toxicity in nude mouse xenografted with human HT-29 cells assessed as body weight change at 28 mg/kg, iv measured for 35 days. The conditions noted are these: in vivo, 840 h, time 35 day. The class given is organism-based.
Data set [15] in a line: Drug accumulation in lung of nude mouse xenografted with human HT-29 cells assessed as fold change in free SN38 at 28 mg/kg, iv measured for 50 hrs by HPLC analysis relative to Irinotecan. It is filed as ADME, organism-based. The settings on record: in vivo.
The subject of the next data set is HepG2. In words: Cytotoxicity against human HepG2 cells incubated for 48 hrs by MTT assay. It is filed as functional, cell-based.
Data set [16] is described as follows: Drug accumulation in human HT-29 cells xenografted in nude mouse assessed as fold increase at 28 mg/kg, iv measured for 1 hr by HPLC analysis relative to Irinotecan. It is filed as ADME, organism-based. The conditions noted are these: in vivo.
Data set [17] in a line: Stability of compound in PBS at pH 6.5 at 50 uM by HPLC analysis. It is filed as physicochemical. The conditions noted are these: buffer, pH 6.5, 50 µM.
The nature of data set [18]: Prodrug conversion in mouse plasma assessed as drug release incubated for 24 hrs by HPLC analysis. The class given is ADME, cell-free.
Data set [19] is described as follows: Drug distribution in lung of nude mouse xenografted with human HT-29 cells at 17.9 mg/kg, iv measured for 1 to 48 hrs by HPLC analysis. The class given is ADME, organism-based. The conditions noted are these: in vivo, time 1-48 hrs.
Data set [20] is described as follows: Stability in mouse plasma assessed as half life by HPLC analysis. The class given is ADME, cell-free.

Each structure is given as a SMILES string. Calls of active or inactive are those of the source. The calls are words filed in the database; no cut-off is given here.

Turning to `CCc1c2c(nc3ccc(OC(=O)N4CCC(N5CCCCC5)CC4)cc13)-c1cc3c(c(=O)n1C2)COC(=O)[C@]3(O)CC` [IRINOTECAN], the Drug uptake entry in data set [1] is given as “Active”. In addition, the inhibition in vivo at 15 mg/kg with HT-29 [2] stood at 62.3%.

The half-life is the time in which the quantity being followed falls by half. In general, Vd refers to the apparent volume that relates the amount in the body to the concentration in plasma or blood. Low values mean little distribution into tissue, high ones wide distribution into tissue. What is called AUC is concentration integrated over time. Lower therefore signals low exposure. What is called Cmax is the highest concentration seen after dosing. In the case of `CCc1c2c(nc3ccc(O)cc13)-c1cc3c(c(=O)n1C2)COC(=O)[C@@]3(CC)OC(=O)CNC(=O)CCCCCCCCCCCCCCCCC(=O)O`, the half-life in data set [3] is 4.37 h; in data set [20], 14 h. The molecule further displayed a Vd in data set [4] of 0.191 L. Further, in data set [5], the CL was 0.517 mL/min/kg. The outcome in the data set on MIA PaCa-2, in the data set with A549, in the data set on HT-29 [9], with MG-63 and with HepG2 was Active. The “fold change (FC)” value was determined as 7.8 in data set [6]; 1.6 in data set [11]; 2.1 in data set [13]; 0.3 in data set [15]; 2.5 in data set [16]. Further, the Stability result in data set [7] and in data set [17] was “Stable” throughout. Moreover, the inhibition in vivo at 28 mg/kg in the data set on HT-29 [8] stood at 71%. The AUC in data set [10] was 23130 ng·h/mL. In data set [12], the highest level (Cmax) was 3670 ng/mL. Moreover, the Activity result in data set [14] is “Non-Toxic”. In data set [18], the Drug metabolism entry was “Metabolite_Detected”. Besides, in [19], the Drug uptake entry is listed as “Active”.
